{
  "source": "patent US20230414568A1",
  "about": "“PHARMACEUTICAL COMBINATION FOR MOOD DISORDERS” (INSTITUTO NACIONAL DE PSIQUIATRÍA \"RAMÓN DE LA FUENTE MUÑIZ\", priority 2018, published 2023)",
  "key": {"[1]": {"system": "olfactory neuronal precursors", "experiment": "Cell cluster formation of olfactory neuronal precursors", "assay_type": "cell-based, human", "protocol": "(§1) Cloned neuronal precursors obtained by exfoliation of the nasal cavity of a healthy subject without neuropsychiatric disease at the time of sample collection were used. These were grown according to the following process: • a) Solution 1 containing the culture medium characterized by containing one or more amino acids, one or more mineral salts, one or more vitamins, one or more growth factors of natural origin, and one or more antibiotics; • b) Solution 2 containing one or more pH regulators, and one or more calcium chelating agents, whose function is to moisten the cells that will later be propagated; • c) Solution 3 containing one or more substances that break proteins and that allow the separation between the cells by dispersing them; • d) Solution 4 containing one or more substances that allow the cells to be fixed to a glass support; • e) Solution 5 of cryopreservation containing one or more cryoprotective agents of neuronal origin cells; • f) Solution 6 of differentiation containing the maintenance solution without natural origin growth factors, and a cyclic nucleotide compound that induces differentiation; • g) Solution 7 containing one or more identifiers of specific protein molecules of the neuronal structure such that they allow to distinguish the neuronal cells from patients with neuropsychiatric diseases from healthy subjects; and • h) Solution 8 containing one or more fluorescent and/or enzymatic markers to recognize the identifiers of solution 7; up to passage 5 at a temperature of 37° C. in a 5% CO^2 atmosphere. Cells in passage 5 were incubated with increasing concentrations of ketamine or melatonin or the combination of both according to the following administration schedules:\n(§2) • i. Incubation of the neuronal precursors with a vehicle (0) and ketamine for 12 hours (1), 24 hours (2), 48 hours (3) and 72 hours (4). • ii. Incubation of neuronal precursors with 10^−7 molar ketamine for 48 hours followed by incubation for 6 hours with 10^−7 molar ketamine and melatonin concentrations ranging from 10^−11 molar (7), from 10^−9 molar (8), 10^−7 molar (9) and 10^−5 molar (10), this evaluation was incorporated in a treatment with vehicle (0), with 10^−7 molar melatonin (5) and 10^−7 molar ketamine (6). Said treatment is outlined in FIG. 1. • iii. […]"}, "[2]": {"system": "Swiss Webster mice", "experiment": "Forced swim test (FST) in mice", "assay_type": "in vivo", "details": "for antidepressant-type effect, reduction of immobility time: acute single I.P. administration, ketamine 1.5 mg/kg, melatonin 4 and 16 mg/kg, alone or combined, vs control group", "protocol": "(§3) Male mice of the “Swiss Webster” strain between 25 and 35 grams were used. All mice were placed in polyethylene boxes (8 mice per box) at a controlled temperature between 21-22° C., in a room with the dark light cycle reversed (12:12 hours, with artificial light from 10 PM to 10 A.M). The behavior evaluations of the mice were carried out between 10 AM and 3 PM. These mice were fed Purina® for rodents and water ad libitum.\nA single intraperitoneal administration (I.P.) was performed in a volume of […] of body weight, as the following treatment scheme: […]\nThe forced swim test consists of two sessions. In the first session (pre-test), the animals are placed in a glass cylinder with the following dimensions: 20 cm in diameter by 30 cm in height. The glass cylinder is filled with water to a height of 15 cm, at 23-25° C. temperature. The mice are kept in the cylinder for 15 minutes and are naturally forced to swim. The second session takes place 24 hours after the first session and 30 minutes after administering the different pharmacological treatments. The mice are placed in the glass cylinder for 5 minutes and videotaped for further analysis. The immobility of mice in FST is defined as depressive-type behavior and is manifested by a minimal amount of movements made by the animal to stay afloat. The antidepressant effect of a drug is reflected in this test as a decrease in immobility time and an increase in swimming compared to control animals (administered with the vehicle)."}, "[3]": {"system": "Swiss Webster mice", "experiment": "Open field test (OFT) in mice", "assay_type": "in vivo", "protocol": "as §3\nIn order to discard nonspecific actions of any of the treatments on locomotor activity, all the treatments studied in the TST and in the FST were analyzed in the OFT. Motor activity was measured in an apparatus formed by an opaque plexiglass box (40×30×20 cm), divided into 12 equal squares ([…]). The animal was placed in a corner of the cage and its behavior was videotaped for a period of 5 minutes. An observer, who was blinded to drug treatments, recorded the total number of times the animal crossed a square during the test. A count was considered when the animal fully crossed from one plaza to the next. Any change in the number of counts is considered as an alteration in locomotor activity. The test box was carefully cleaned after each session. To avoid changes in the behavior of the animals after the first experiment, the mice were used only once per test type.\nThe following groups of mice were treated under a single administration schedule: with a vehicle (26), a sub-effective dose of ketamine 1.5 mg/Kg (27), 3 mg/Kg (28), 10 mg/Kg (29), 20 mg/Kg (30), 30 mg/Kg (31), plus no effective dose of melatonin and 30 minutes later they were subjected to TST.\nUnder the same single administration scheme; (24, 7 and 0.5 h) before starting the trial, two other independent groups were administered with melatonin 4 mg/kg (33) and 16 mg/kg (34) plus no effective dose of ketamine, with their respective control (32). In other groups, melatonin 4 mg/kg +ketamine 1.5 mg/kg (36) and melatonin 16 mg/kg+ketamine 1.5 mg/kg (37) were administered, with their respective control (35).\nThe following groups of mice were treated under a triple administration scheme: with a vehicle (38), three administrations of melatonin 4 mg/Kg (39), three administrations of melatonin 16 mg/Kg (40), three administrations of ketamine 1.5 mg/Kg (41), three administrations of melatonin 4 mg/Kg+one administration of ketamine 1.5 mg/Kg (42) and three administrations of melatonin 16 mg/Kg+one administration of ketamine 1.5 mg/Kg (43) and 30 minutes later they were subjected to TST.\nEvaluating the effect of melatonin in combination with ketamine on the ambulatory activity of mice in the open field test (OFT) all results are expressed as the mean±SEM of 8-12 animals. Comparisons were made using a one-way ANOVA analysis, followed by the Bonferroni test: * p<0.05, ** p<0.01, *** p<0.001."}, "[4]": {"system": "Swiss Webster mice", "experiment": "Tail suspension test (TST) in mice", "assay_type": "in vivo", "details": "N 8"}, "[5]": {"system": "olfactory neuronal precursors", "experiment": "Formation of spines in cloned olfactory neuronal precursors", "assay_type": "cell-based, human", "details": "ketamine 10^−7 M", "protocol": "as §1, §2\nOnce the cells were fixed, they were processed to stain them with specific markers that recognize the spines, which are made up of spinophilin and filamentous actin (FIG. 2A and 2B). […] The spines were counted in 10 fields chosen at random and normalized between the total cells number present in each field (Table 1). […]"}, "[6]": {"details": "single administration, melatonin 4 mg/kg (group 33)"}, "[7]": {"details": "single administration, melatonin 16 mg/kg (group 34)"}, "[8]": {"details": "triple administration, melatonin 4 mg/kg (group 39)"}, "[9]": {"details": "triple administration, melatonin 16 mg/kg (group 40)"}, "[10]": {"details": "single administration, ketamine 1.5 mg/kg (group 27)"}, "[11]": {"details": "single administration, ketamine 3 mg/kg (group 28)"}, "[12]": {"details": "single administration, ketamine 10 mg/kg (group 29)"}, "[13]": {"details": "single administration, ketamine 20 mg/kg (group 30)"}, "[14]": {"details": "single administration, ketamine 30 mg/kg (group 31)"}, "[15]": {"details": "triple administration, ketamine 1.5 mg/kg (group 41)"}},
  "note": "Marks after values point to notes of the source that are not given here.",
  "data": [
    {"smiles": "COc1ccc2[nH]cc(CCNC(C)=O)c2c1", "note": "[Melatonin, N-[2-(5-methoxy-1H-indol-3-yl)ethyl] acetamide]", "values": [
      {"measurement": "cell cluster", "setting": "[1]; triple administration: three administrations of melatonin 10^−7 M (group 12)", "result": "2.9 ± 0.9", "unit": "%"},
      {"measurement": "cell cluster", "setting": "[1]; vehicle pre-treatment, then melatonin 10^−7 M (group 5)", "result": "7.61 ± 0.59", "unit": "%"},
      {"measurement": "antidepressant-type effect, reduction of immobility time", "setting": "[2]", "result": "ineffective"},
      {"measurement": "Immobility time", "setting": "[2]; melatonin 4 mg/kg I.P. (group 21)", "result": "41.21 ± 7.29", "unit": "s"},
      {"measurement": "Immobility time", "setting": "[2]; melatonin 16 mg/kg I.P. (group 22)", "result": "17.38 ± 2.51", "unit": "s"},
      {"measurement": "Count number/5 min", "setting": "[3]; [6]", "result": "41.12 ± 2.48"},
      {"measurement": "Stop number/5 min", "setting": "[3]; [6]", "result": "25.37 ± 2.18"},
      {"measurement": "Count number/5 min", "setting": "[3]; [7]", "result": "38.50 ± 3.74"},
      {"measurement": "Stop number/5 min", "setting": "[3]; [7]", "result": "25.12 ± 2.36"},
      {"measurement": "Count number/5 min", "setting": "[3]; [8]", "result": "47.200 ± 5.20"},
      {"measurement": "Stop number/5 min", "setting": "[3]; [8]", "result": "29.111 ± 2.16"},
      {"measurement": "Count number/5 min", "setting": "[3]; [9]", "result": "42.625 ± 5.97"},
      {"measurement": "Stop number/5 min", "setting": "[3]; [9]", "result": "26.375 ± 4.60"},
      {"measurement": "Count Number/5 min ± mean standard error", "setting": "[4]; melatonin 4 mg/kg", "result": "41.125 ± 2.489"},
      {"measurement": "Count Number/5 min ± mean standard error", "setting": "[4]; melatonin 16 mg/kg", "result": "38.500 ± 3.746"}
    ]},
    {"smiles": "CNC1(c2ccccc2Cl)CCCCC1=O", "note": "(centres unmarked) [Ketamine, 2-(2-chlorophenyl)-2-(methylamino) cyclohexanone]", "values": [
      {"measurement": "cell cluster", "setting": "[1]; ketamine 10^−7 M pre-treatment 48 h, then vehicle (group 6)", "result": "7.12 ± 0.92", "unit": "%"},
      {"measurement": "cell cluster", "setting": "[1]; two vehicle administrations + one administration of ketamine 10^−7 M (group 13)", "result": "3.1 ± 1.0", "unit": "%"},
      {"measurement": "Spines", "setting": "[5]; incubation 12 h (group 1)", "result": "10.25 ± 1.89", "unit": "%"},
      {"measurement": "Spines", "setting": "[5]; incubation 24 h (group 2)", "result": "22.65 ± 2.16", "unit": "%"},
      {"measurement": "Spines", "setting": "[5]; incubation 48 h (group 3)", "result": "45.31 ± 4.26", "unit": "%"},
      {"measurement": "Spines", "setting": "[5]; incubation 72 h (group 4)", "result": "45.31 ± 3.88", "unit": "%"},
      {"measurement": "antidepressant-type effect, reduction of immobility time", "setting": "[2]", "result": "ineffective"},
      {"measurement": "ambulatory activity in OFT", "setting": "[3]; highest doses of ketamine (10 30 mg/kg), did not reach statistical significance, F(3,31)=2.99, p=0.047", "result": "modified ambulatory activity"},
      {"measurement": "ambulatory activity in OFT", "setting": "[3]; ketamine 1.5, 3.0, 10.0 and 20.0 mg/kg, F(2,23)=0.545, p=0.589", "result": "did not produce changes in the ambulatory activity"},
      {"measurement": "Count number/5 min", "setting": "[3]; [10]", "result": "40.12 ± 3.23"},
      {"measurement": "Stop number/5 min", "setting": "[3]; [10]", "result": "28.62 ± 3.15"},
      {"measurement": "Count number/5 min", "setting": "[3]; [11]", "result": "45.25 ± 4.29"},
      {"measurement": "Stop number/5 min", "setting": "[3]; [11]", "result": "28.25 ± 2.66"},
      {"measurement": "Count number/5 min", "setting": "[3]; [12]", "result": "56.62 ± 4.36**"},
      {"measurement": "Stop number/5 min", "setting": "[3]; [12]", "result": "45.25 ± 2.85**"},
      {"measurement": "Count number/5 min", "setting": "[3]; [13]", "result": "56.00 ± 3.62**"},
      {"measurement": "Stop number/5 min", "setting": "[3]; [13]", "result": "45.50 ± 3.70"},
      {"measurement": "Count number/5 min", "setting": "[3]; [14]", "result": "60.12 ± 1.60***"},
      {"measurement": "Stop number/5 min", "setting": "[3]; [14]", "result": "45.37 ± 1.71"},
      {"measurement": "Count number/5 min", "setting": "[3]; [15]", "result": "41.400 ± 3.97"},
      {"measurement": "Stop number/5 min", "setting": "[3]; [15]", "result": "28.000 ± 2.53"},
      {"measurement": "Count Number/5 min ± mean standard error", "setting": "[4]; ketamine 1.5 mg/kg", "result": "40.12 ± 3.23"},
      {"measurement": "Count Number/5 min ± mean standard error", "setting": "[4]; ketamine 3 mg/kg", "result": "45.25 ± 4.29"},
      {"measurement": "Count Number/5 min ± mean standard error", "setting": "[4]; ketamine 10 mg/kg", "result": "56.34 ± 4.36"}
    ]},
    {"smiles": "CNCCC(Oc1ccc(C(F)(F)F)cc1)c1ccccc1", "note": "(centres unmarked) [Fluoxetine, fluoxetine]", "values": [
      {"measurement": "Immobility time", "setting": "[2]; fluoxetine 5 mg/kg I.P. (group 19)", "result": "49.76 ± 4.65", "unit": "s"},
      {"measurement": "Immobility time", "setting": "[2]; fluoxetine 10 mg/kg I.P. (group 20)", "result": "35.25 ± 3.88", "unit": "s"}
    ]}
  ]
}
